Laboratory results published in patent publication US11471503B2, “Use of KOR agonist in combination with MOR agonist in preparing drug for treating pain” (JIANGSU HENGRUI MEDICINE CO., LTD., priority 2017, dated 2022).
Where a SMILES comes first, the peptide text is derived from it. [ ]: non-standard residue; d: D form. The star is where a group is joined. Gly(N-(2R-Ph-propyl)) = C[C@@H](CNCC(=O)O)c1ccccc1; Piperidin1yl(4-NH2,4-COOH) = NC1(C(=O)O)CCN(*)CC1

Test system: incision pain in rats
Assay: Incision pain test in rats, mechanical pain threshold by Electronic Von Frey
Format: in vivo, rat (male Wistar)
Conditions: for increase of tenderness threshold compared with the model group: i.v., 30 min after injection; for tenderness threshold: tail vein i.v. 24 h after incision, measured 30 min after injection, model group 8.91 g
Experimental: Example 3. Treatment Effect of the Combination of the KOR Agonist and the MOR Agonist of the Present Invention on Incision Pain in Rats
Compound 5 (prepared according to the method described in Example 1), and compound 20 (prepared according to the method described in Example 2). The compound dose was calculated on bases.
Experimental male Wistar rats were purchased from Shanghai Slac Laboratory Animal Co., Ltd. The rats weighed 140-160 g when purchased, and were fed at 5 rats/cage, under a condition of 12/12 hours light/dark cycle adjustment, a constant temperature of 23±1° C., a humidity of 50-60%, and free access to food and water. After purchase, the animals were subjected to an adaptive feeding for more than 3 days before the experiment was started.
Electronic Von Frey: UGO BASILE, type 38450.
Both compound 5 and compound 20 were formulated with normal saline.
The rats were randomly divided into the following groups according to the body weight: blank control group (n=10), model group (n=10) and drug-administered group (n=50). The drug-administered group was divided into the following groups: compound 20-0.03 mg/kg group (n=10), compound 5-0.3 mg/kg group (n=10), compound 5-0.1 mg/kg+compound 20-0.03 mg/kg group (n=10), compound 5-0.3 mg/kg+compound 20-0.03 mg/kg group (n=10), and compound 5-1 mg/kg+compound 20-0.03 mg/kg group (n=10). The model group and drug-administered group were subjected to an incision surgery. During the surgery, the rats were anesthetized with isoflurane. An incision (1 cm long) passing through the skin and fascia was made with a No. 10 surgical blade in the middle of the left hind paw. The skin was sutured with a 3-0 sterile silk surgical suture. The injured site was disinfected with antibiotic ointment and iodophor. The animals were returned to their original place to recover overnight. After 24 hours, the drug was injected through the tail vein, and the blank control group and the model group were administrated with normal saline two times with an interval of 15 minutes. The group administered with compound 20 alone was intravenously injected with the corresponding dose of compound 20 and the blank solvent for formulating compound 5. The group administered with compound 5 alone was intravenously injected with the corresponding dose of compound 5 and the blank solvent for formulating compound 20. […] The mechanical pain threshold of each group was measured by the Electronic Von Frey 30 minutes after the injection to evaluate the analgesic effect of the drug on the surgical incision pain and the intensity thereof.
The experimental data were expressed as mean±standard deviation (S.D.). […]

CCO[C@H]1CC[C@H](NCC[C@@]2(c3ccccn3)CCOC3(CCCC3)C2)c2ccccc21 [compound 20, (1S,4S)-4-Ethoxy-N-(2-((R)-9-(pyridin-2-yl)-6-oxaspiro[4.5]decan-9-yl)ethyl)-1,2,3,4-tetrahydronaphthalen-1-amine]
increase of tenderness threshold compared with the model group (compound 20 0.03 mg/kg alone): 62.3%
tenderness threshold (compound 20 0.03 mg/kg alone, blank control 14.48 g): 14.46 g

CC(C)C[C@@H](NC(=O)[C@@H](Cc1ccccc1)NC(=O)CNC[C@H](C)c1ccccc1)C(=O)N[C@H](CCCCN)C(=O)N1CCC(N)(C(=O)O)CC1 [compound 5, 4-Amino-1-((2R,5R,8R,14R)-2-(4-aminobutyl)-8-benzyl-5-isobutyl-4,7,10-trioxo-14-phenyl-3,6,9,12-tetraazapentadecan-1-oyl)piperidine-4-carboxylic acid] (H-[Gly(N-(2R-Ph-propyl))][dF][dL][dK]-{Piperidin1yl(4-NH2,4-COOH)})
increase of tenderness threshold compared with the model group (compound 5 0.3 mg/kg alone): 101.1%
tenderness threshold (compound 5 0.3 mg/kg alone): 17.92 g
